Results published in patent US10591478B2, “Methods for molecular classification of fatty liver by high-throughput protein post-translational modifications” (ROSEMAN UNIVERSITY OF HEALTH SCIENCES, priority 2015, dated 2020).
Entries after “also recorded” stand apart in the source; their conditions may differ. Each block holds one compound with its values, some of them ahead of it.

Legend:
FOXO1 = assay: cIEF immunoassay of FOXO1 pI distribution in HepG2 cells; type: cell-based; conditions: 48 hours
Method: A NanoPro 1000 cIEF system (Protein Simple, Santa Clara, Calif., USA) was employed for profiling protein PTM. Samples of 400 nl volume were separated by isoelectric focusing using the 96-capillary system, followed by immobilization of the proteins onto the inner capillary walls. Primary and secondary antibodies (Tables 2 and FIG. 6) were introduced into the capillaries, followed by chemiluminescence detection reagents. The incubation times were 110 and 55 min for primary and secondary antibodies, respectively. The separation time was 50 minutes at […]. All samples were loaded in triplicate into capillaries to evaluate the consistency of capillary-to-capillary measurement. Each experiment was performed in triplicate to ensure repeatability. A minimum of nine cIEF measurements were done for each protein per animal group. […]
HepG2 cells were maintained in DMEM media with 25 mM glucose and 10% fetal calf serum. […] Total HepG2 cell extracts were collected and evaluated with 1D Western blots using antibodies against O-GlcNAc.
HepG2 cells were transiently transfected with an expression vector that expressed FOXO1 with a Myc-DDK tag (Cat. No. RC200477, Origene, Rockville, Md.). […] HepG2 cells were treated for 48 hours with 500 μM glucosamine Total HepG2 cell extracts were collected and evaluated with 1D and 2D Western blots using antibodies against FLAG tag. […]

HepG2 cells = assay: 1D Western blot of HepG2 total cell extracts with antibodies against O-GlcNAc; type: cell-based; conditions: HepG2, 100 μM PUGNAc, 48 hours
Method: HepG2 cells were maintained in DMEM media with 25 mM glucose and 10% fetal calf serum. HepG2 cells were treated for 48 hours with 100 μM PUGNAc (Cat. No. A7229, Sigma, St. Louis, Mo.). Total HepG2 cell extracts were collected and evaluated with 1D Western blots using antibodies against O-GlcNAc.
HepG2 cells were first lysed with M-Per lysis buffer (Pierce, Rockford, Ill., USA) in the presence of protease and phosphatase inhibitors. For cIEF immunoassays, total cell lysates were prepared in Premix G2 pH 5-8 separation gradient containing pI standards (ProteinSimple).
HepG2 total cell extracts were analyzed on 10% SDS-polyacrylamide gel. Secondary antibodies were purchased from LI-COR (Lincoln, Nebr., Cat. No. 92668070). Immunoblots were detected with the LI-COR's Odyssey CLx imaging system.

FLAG-tagged FOXO1 = assay: 2D Western blot of FLAG-tagged FOXO1 in HepG2 cells; type: cell-based; conditions: HepG2 transfected with FLAG-tagged FOXO1, 500 μM glucosamine, 48 hours
Method: HepG2 cells were transiently transfected with an expression vector that expressed FOXO1 with a Myc-DDK tag (Cat. No. RC200477, Origene, Rockville, Md.). Transfection reagent was purchased from Life Technologies (Lipofectamine 2000, Cat. No. 11668-019, Grand Island, N.Y. 14702). HepG2 cells were treated for 48 hours with 500 μM glucosamine Total HepG2 cell extracts were collected and evaluated with 1D and 2D Western blots using antibodies against FLAG tag.
2D Western blots of HepG2 total protein extracts were performed by Kendrick Laboratories (Madison, Wis.). Total protein extracts was diluted with 100 ul of SDS Boiling Buffer and microdialyzed overnight using 6-8,000 MWCO membrane at 4° C. Samples were then lyophilized and redissolved to 3.33 mg/ml in diluted SDS boiling Buffer:Urea Sample Buffer before loading. A total of 500 μg of total protein extracts or 150 μl was loaded for isoeletric focusing. Carrier ampholine method of isoelectric focusing was carried out in a glass tube of inner diameter 3.3 mm using 2.0% pH 4-8 mix Servalytes (Serva, Heidelberg, Germany) for 20,000 volt-hrs. After equilibration for 10 minutes in 10% glycerol, 50 mM dithiothreitol, 2.3% SDS and 0.0625 M tris, pH 6.8, each tube gel was sealed to the top of a stacking gel that overlaid a 10% acrylamide slab gel. SDS slab gel electrophoresis was carried out for about 5 hours at 25 mA/gel. […]

Akt = assay: cIEF immunoassay phosphorylation profile of Akt in liver tissues; type: in vivo, mouse; conditions: C57BL/6J+F liver vs C57BL/6J
Method: (§1) C57BL/6 J and UPase1-TG mice were fed a lean diet that provides 4.6 kcal/g (22% by calorific value from fat, 23% from protein, and 55% from carbohydrates; PicoLab Mouse Diet, Catalog No 5058, LabDiet, Brentwood, Mo., USA). C57BL/6 J+LD mice were fed a lean diet for 16 weeks. C57BL/6 J+F mice were fed a lean diet supplemented with fenofibrate (400 mg/kg per day) for 5 days. C57BL/6 J+HFD mice were fed a high-fat diet that provides 5.24 kcal/g (60% from fat, 20% from protein, and 20% from carbohydrates) for 16 weeks (Catalog No D12492, Research Diets Inc, New Brunswick, N.J., USA). C57BL/6 J mice served as a control for C57BL/6 J+LD, UPase1-TG, and C57BL/6 J+F mice. On the other hand, C57BL/6 J+LD mice served as a control for C57BL/6 J+HFD mice. All animal studies were performed in conformity with the Public Health Service Policy on Humane Care and Use of Laboratory Animals and with the approval of the Animal Care and Use Committees at Nevada Cancer Institute, Desert Research Institute, and Touro University Nevada.
(§2) Approximately 500 mg of frozen liver tissues was added to 300 μl of RIPA buffer (Cat. No. 8990, Life Technologies, Grand Island, N.Y. 14702) containing proteinase and phosphatase inhibitors and homogenized twice at 6 seconds duration. […]

HMGCS2 = assay: cIEF immunoassay PTM profile of HMGCS2 in liver tissues; type: in vivo, mouse; conditions: C57BL/6J+F liver vs C57BL/6J
Method: as §1, §2

LCAD = assay: cIEF immunoassay PTM profile of LCAD in liver tissues; type: in vivo, mouse; conditions: C57BL/6J+F liver vs control C57BL/6J
Method: as §1, §2

PFK1 = assay: cIEF immunoassay PTM profile of PFK1 in liver tissues; type: in vivo, mouse; conditions: C57BL/6J+F liver vs control C57BL/6J
Method: as §1, §2

ERK1/2 = assay: cIEF immunoassay phosphorylation profile of ERK1/2 in liver tissues; type: in vivo, mouse; conditions: C57BL/6J+F liver vs control C57BL/6J
Method: as §1, §2

[1] = tested on: liver tissues (hepatic steatosis); assay: Assessment of hepatic steatosis with CARS microscopy and Oil Red O histology; type: in vivo, mouse; conditions: C57BL/6J+F mice, fenofibrate diet (400 mg/kg per day) for 5 days
Method: as §1

LCAT = assay: cIEF immunoassay PTM profile of LCAT in liver tissues; type: in vivo, mouse
Method: as §1, §2

ChREBP = assay: cIEF immunoassay PTM profile of ChREBP in liver tissues; type: in vivo, mouse; conditions: C57BL/6J+F liver vs control C57BL/6J
Method: as §1, §2

SMILES: CC(=O)N[C@H]1/C(=N/OC(=O)Nc2ccccc2)O[C@H](CO)[C@@H](O)[C@@H]1O [PUGNAc]
new FOXO1 peak, pI (FOXO1; HepG2, 100 μM PUGNAc): 8.25 pI
overall protein O-linked glycosylation profile of HepG2 total cell extract (HepG2 cells): increased

SMILES: N[C@H]1C(O)O[C@H](CO)[C@@H](O)[C@@H]1O (stereo partly shown) [glucosamine]
FOXO1 peaks in cIEF, pI (FOXO1; HepG2, 500 μM glucosamine): > 7.5 pI
FLAG-tagged FOXO1 pI on 2D Western blot (FLAG-tagged FOXO1): shift to FLAG-tagged FOXO1 toward basic pI values; also recorded: additional gel spot at a basic pI value

Fatty liver classification [1]: severe microvesicular steatosis
SMILES: CC(C)OC(=O)C(C)(C)Oc1ccc(C(=O)c2ccc(Cl)cc2)cc1 [fenofibrate]
Akt phosphorylation level, lower compared to control (Akt): approximately 30%
PTM increase for HMGCS2, areas under the curve from pI 5.7 to 6.4 (HMGCS2): 2 folds
glycosylated LCAD isoform, folds higher, areas under the curve (LCAD): 2 folds
reduction of phosphorylated PFK-1 isoform, areas under the curve (PFK1): ~10 folds
increase of ERK1/2 phosphorylated isoforms, areas under the curve (ERK1/2): ~30%
LCAT observed pI value (LCAT; C57BL/6J+F liver): 5.8 pI
glycosylated LCAT isoforms, folds lower (LCAT; C57BL/6J+F liver vs C57BL/6J): ~10 folds
reduction of phosphorylated ChREBP isoforms (ChREBP): 60%
